{"source": "patent US20020076833A1", "about": "“Analysis of biological samples utilizing a coated solid phase” (priority 2000, published 2002)", "type_in_all_cases": "cell-based, human", "key": {"[1]": {"test_system": "membrane-bound P-selectin on platelets", "experiment": "1-Step membrane P-selectin assay in whole blood (Example 5)", "settings": "10 μM ADP for two minutes, formalin fixed", "experimental": "Whole blood was obtained from a healthy volunteer and collected into a blood collection tube containing D-phe-pro-arg-chloromethylketone (PPACK, Dihydrochloride). An aliquot of whole blood was stimulated with 10 μM adenosine diphosphate (ADP) for two minutes and then fixed for two minutes with neutral buffered formalin (1% final concentration). Another aliquot was not treated with ADP, but only fixed with 1% neutral buffered formalin for two minutes\nTo 100 μL of each of the above three sample preparations the following reagents were added: 50 μL of FITC-labeled anti-P-selectin (anti-CD62P) rabbit polyclonal antibody (at 20 μg/mL) and 50 μL of 0.5% (w/v) paramagnetic microparticles (3.7 micron (μm)) coated with anti-glycoprotein GPIb (CD42b) murine monoclonal antibody (Mab). The mixtures were incubated at room temperature for either 10 or 15 minutes. The microparticles were separated magnetically and the supernatant was removed. The microparticles were washed by re-suspension in 200 μL of PBS supplemented with 1% bovine serum albumin (BSA) followed by magnetic separation of the microparticles and removal of the supernatant. This sequence was repeated and the microparticles were re-suspended in 0.1% SDS at pH 11. The microparticles were separated magnetically and the supernatants were transferred to a 96 well plate and examined for fluorescence intensity."}, "[2]": {"test_system": "membrane P-selectin on platelets", "experiment": "2-Step membrane P-selectin assay in whole blood (Example 6)", "settings": "10 μM ADP (with 1.0 uM Epinepherine where named) for two minutes, formalin treated", "experimental": "Whole blood was obtained from a healthy volunteer and collected into a sample collection tube containing D-Phe-Pro-Arg-chloromethylketone (PPACK, dihydrochloride). An aliquot of whole blood was stimulated with 10 μM adenosine diphosphate (ADP) and 1.0 uM Epinepherine for two minutes and then treated for two minutes with neutral buffered formalin (1% final concentration). An additional aliquot of whole blood was stimulated with 10 μM ADP for two minutes and then treated for two minutes with neutral buffered formalin. An additional aliquot of whole blood was treated for two minutes with 1% neutral buffered formalin for two minutes without ADP stimulation.\n50 μL of 0.5% (w/v) paramagnetic microparticles (3.7 micron (μm)), which were coated with anti-glycoprotein GP1b murine monoclonal antibodies (Mab), were added to 100 μL of each of the above sample preparations. The mixtures were incubated at room temperature for 10 minutes. The microparticles were separated magnetically and the supernatant was removed. The microparticles were washed by re-suspension in 200 μL of PBS supplemented with 1% BSA. The microparticles were again separated magnetically and the supernatant removed. […] The microparticles were separated magnetically and the supernatants transferred to a 96 well plate and examined for fluorescence intensity."}, "[3]": {"test_system": "membrane GPIIb/IIIa on platelets", "experiment": "GPIIb/IIIa assay with fibrinogen-coated microparticles (Example 7)", "settings": "two minutes", "experimental": "3.7 micron (μm) carboxyl-modified paramagnetic microparticles were coated with Human Fibrinogen which interacts and binds with the complexed form of the platelet membrane surface component glycoproteins GPIIb/GPIIIa (CD41/CD61). The coated particles were re-suspended in phosphate buffered saline (PBS) buffer at 0.5% w/v.\n(§1) Whole blood was obtained from a healthy volunteer and collected into a 3.0 mL blood collection tube containing 0.3 μg D-phe-pro-arg-chloromethylketone (PPACK, Dihydrochloride) and 2.1 mL Hanks' Balanced Salt supplemented with 10 mM HEPES, pH 7.4. An aliquot of this whole blood preparation was stimulated with 10 μM adenosine 5′-diphosphate (ADP) for two minutes prior to being tested in the assay. Another aliquot was stimulated with 2 μM adenosine 5′-diphosphate (ADP) for two minutes prior to being tested in the assay, and a final aliquot was not treated with ADP.\nTo a set of 5 μL, 10 μL, and 20 μL of each of the above three sample preparations 20 μL of FITC-labeled anti-IIb/IIIa (anti-CD41a) mouse monoclonal antibody (at 20 μg/mL) was added. The mixture was incubated for 10 minutes at room temperate at which point 50 μL of 0.5% (w/v) paramagnetic microparticles (3.7 micron (μm)) coated with Fibrinogen was added. The mixtures were incubated at room temperature for an additional 10 minutes. The microparticles were separated magnetically and the supernatant was removed. The microparticles were washed by re-suspension in 200 μL of PBS supplemented with 1% bovine serum albumin (BSA), followed by magnetic separation of the microparticles and removal of the supernatant. This sequence was repeated three times and the microparticles were re-suspended in 0.1% SDS at pH 11. The microparticles were separated magnetically and the supernatants were transferred to a 96 well plate and examined for fluorescence intensity."}, "[4]": {"test_system": "membrane-bound P-selectin on platelets", "experiment": "Membrane P-Selectin assay (Example 8)", "settings": "two minutes", "experimental": "as §1\nTo a set of 10 μL and 20 μL of each of the above three sample preparations 20 μL of FITC-labeled anti P-Selectin (anti-CD62P) rabbit polyclonal antibody (at 20 μg/mL) was added. The mixture was incubated for 10 minutes at room temperate at which point 50 μL of 0.5% (w/v) paramagnetic microparticles (3.7 micron (μm)) coated with anti-glycoprotein GP1b (CD42b) murine monoclonal antibody (Mab) was added. The mixtures were incubated at room temperature for an additional 10 minutes. The microparticles were separated magnetically and the supernatant was removed. The microparticles were washed by re-suspension in 200 μL of PBS supplemented with 1% bovine serum albumin (BSA) followed by magnetic separation of the microparticles and removal of the supernatant. This sequence was repeated three times and the microparticles were re-suspended in 0.1% SDS at pH 11. The microparticles were separated magnetically, and the supernatants were transferred to a 96 well plate and examined for fluorescence intensity."}}, "data": [{"smiles": "Nc1ncnc2c1ncn2[C@@H]1O[C@H](COP(=O)(O)OP(=O)(O)O)[C@@H](O)[C@H]1O", "note": "[ADP, adenosine diphosphate]", "values": [{"measurement": "FITC Signal Detected", "setting": "[1]; 10 min. incubation", "value": 1235}, {"measurement": "FITC Signal Detected", "setting": "[1]; 15 min. incubation", "value": 1526}, {"measurement": "FITC Signal Detected", "setting": "[2]", "value": 17349}, {"measurement": "FITC Signal Detected", "setting": "[3]; 2 uM ADP, sample volume 5 μL", "value": 524}, {"measurement": "FITC Signal Detected", "setting": "[3]; 2 uM ADP, sample volume 10 μL", "value": 579}, {"measurement": "FITC Signal Detected", "setting": "[3]; 2 uM ADP, sample volume 20 μL", "value": 896}, {"measurement": "FITC Signal Detected", "setting": "[3]; 10 uM ADP, sample volume 5 μL", "value": 525}, {"measurement": "FITC Signal Detected", "setting": "[3]; 10 uM ADP, sample volume 10 μL", "value": 616}, {"measurement": "FITC Signal Detected", "setting": "[3]; 10 uM ADP, sample volume 20 μL", "value": 1031}, {"measurement": "FITC Signal Detected", "setting": "[4]; 2 μM ADP, sample volume 10 μL", "value": 1544}, {"measurement": "FITC Signal Detected", "setting": "[4]; 2 μM ADP, sample volume 20 μL", "value": 2390}, {"measurement": "FITC Signal Detected", "setting": "[4]; 10 μM ADP, sample volume 10 μL", "value": 1749}, {"measurement": "FITC Signal Detected", "setting": "[4]; 10 μM ADP, sample volume 20 μL", "value": 2747}]}]}
